This note sets out measurements from paper PMC5706701, “Development of a homogenous high-throughput assay for inositol hexakisphosphate kinase 1 activity” (PLoS ONE, 2017).

The assay deals with T1, Human IP6K1 (Homo sapiens, UniProt Q92551).
T1 construct: GST (N, cleaved yes); made in house; host or cells: C43 E. coli, pGEX-6P-2
Nature of the assay: IP6K1 high-throughput screen of the Sigma LOPAC (ADP-Glo Max, single point).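 Further: final compound concentration 10µM in 5% DMSO.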 Type of assay: biochemical. On the technique in general: ADP-Glo turns the ADP formed in a reaction into a luminescent signal.

The mark [1] stands for this setting: LOPAC single-point screen, ADP-Glo Max raw signal per well.
[2] abbreviates: LOPAC single-point screen, Z-score from raw signal with plate average and StDev.
The mark [3] stands for this setting: LOPAC single-point screen, Z-score against plate average and StDev.
The mark [4] stands for this setting: Sigma LOPAC single-point screen, ADP-Glo Max raw signal per well.
The mark [5] stands for this setting: Sigma LOPAC single-point screen, Z-score from plate average and StDev.
Where [6] appears, read: LOPAC single-point screen, ADP-Glo Max luminescence raw signal per well.
Where [7] appears, read: LOPAC single-point screen, Z-score relative to plate average and StDev.
[8] abbreviates: LOPAC single-point screen, Z-score from plate average and StDev.

Structures can show the parent of a compound that is named as a salt. Where two headings read alike, the source gives them in different places.

T1 sequence (Q92551 whole entry): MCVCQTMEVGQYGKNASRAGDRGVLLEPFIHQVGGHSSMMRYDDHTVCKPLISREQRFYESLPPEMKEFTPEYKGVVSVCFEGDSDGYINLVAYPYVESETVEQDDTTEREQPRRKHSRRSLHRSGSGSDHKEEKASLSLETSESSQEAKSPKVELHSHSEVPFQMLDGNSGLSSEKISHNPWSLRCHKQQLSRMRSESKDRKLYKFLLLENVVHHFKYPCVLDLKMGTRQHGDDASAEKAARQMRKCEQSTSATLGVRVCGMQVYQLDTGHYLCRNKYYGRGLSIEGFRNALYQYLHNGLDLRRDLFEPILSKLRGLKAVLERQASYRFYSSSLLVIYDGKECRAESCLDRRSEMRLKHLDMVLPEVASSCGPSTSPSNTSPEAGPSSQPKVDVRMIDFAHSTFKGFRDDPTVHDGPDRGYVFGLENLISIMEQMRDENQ

`O=c1c(-c2ccc(O)cc2)coc2cc(O)cc(O)c12` [Genistein]: the “Raw Signal” value under setting [1] is listed as 53223. In addition, under setting [2], the Z-score is reported as -0.3948.
As to `Cn1c(=O)c2[nH]cnc2n(C)c1=O.Cn1c(=O)c2[nH]cnc2n(C)c1=O.NCCN` [Aminophylline ethylenediamine], under setting [1], the “Raw Signal” value is reported as 57914. This molecule also showed a Z-score under setting [3] of 0.0001585.
For `CC(C)NC[C@@H](O)c1ccc(O)c(O)c1.O=C(O)C(O)C(O)C(=O)O` [S(+)-Isoproterenol (+)-bitartrate], the “Raw Signal” value under setting [1] stood at 55551. For the same molecule, the Z-score under setting [3] turned out to be 0.1945.
On the same counts, the results for `CC(Cc1ccc(O)cc1)NCC(O)c1cc(O)cc(O)c1` (stereo not drawn) [Fenoterol hydrobromide] are 56195 and 0.2088.
For the molecule `Brc1c(NC2=NCCN2)ccc2nccnc12` [UK 14,304], the “Raw Signal” value was 53944 and the Z-score is listed as -0.4041.
For the molecule `CN(C)CCC(c1ccc(Cl)cc1)c1ccccn1.O=C(O)/C=C\C(=O)O` (racemic) [(±)-Chlorpheniramine maleate], the “Raw Signal” value under setting [4] is on record as 60371. For the same molecule, the Z-score under setting [5] is recorded as 0.4329.
`CC(C)NCC(O)c1ccc(NS(C)(=O)=O)cc1.Cl` (racemic) [(±)-Sotalol hydrochloride]: under setting [1], the “Raw Signal” value was 55236. The molecule further gave a Z-score under setting [2] of -0.1531.
Regarding `O=C(O)[C@@H]1CCN1` [L-azetidine-2-carboxylic acid], the “Raw Signal” value under setting [6] is given as 54831. The Z-score under setting [7] was -0.5428.
`C=CCN1C[C@H](C)N([C@H](c2ccc(C(=O)N(CC)CC)cc2)c2cccc(OC)c2)C[C@H]1C` [SNC80]: under setting [1], the “Raw Signal” value came to 54916. Further, the Z-score under setting [2] is -0.2152.
Consider `CC(=O)SCC[N+](C)(C)C.[Cl-]` [Acetylthiocholine chloride], for which the “Raw Signal” value under setting [1] is given as 58613. Moreover, the Z-score under setting [3] came out at 0.1233.
In the case of `N#C/C(=C\c1ccc(O)c(O)c1)C(=O)Nc1ccccc1` [Tyrphostin AG 494], the “Raw Signal” value under setting [1] is given as 54872. This molecule also registered a Z-score under setting [2] of -0.2238.
Regarding `CCCn1c(=O)c2[nH]c(C3CCCC3)nc2n(CCCOC(=O)c2ccc(S(=O)(=O)F)cc2)c1=O` [FSCPX], under setting [6], the “Raw Signal” value came to 51325. Under setting [7], this molecule came in with a Z-score of -0.7803.
For `C[N+]1(C)[C@@H]2CC[C@H]1C[C@@H](OC(=O)C(CO)c1ccccc1)C2` (stereo partly drawn) [Atropine methyl bromide], the “Raw Signal” value under setting [6] was 52228. The molecule further displayed a Z-score under setting [7] of -1.0013.
Consider `Br.CO[C@H]1CC=C2CCN3CCC4=C(CC(=O)OC4)[C@]23C1` [Dihydro-beta-erythroidine hydrobromide], for which the “Raw Signal” value under setting [6] worked out at 51044. The same molecule came in with a Z-score under setting [7] of -0.8373.
For `NC(C(=O)O)C(O)C(=O)O` (racemic) [DL-threo-beta-hydroxyaspartic acid], the “Raw Signal” value under setting [6] is given as 64938. This molecule gave a Z-score under setting [8] of 1.984.
As for `COC(=O)c1c(C)[nH]c(C)c1C(=O)c1ccccc1Cc1ccccc1` [FPL 64176], the “Raw Signal” value under setting [1] is on record as 56544. The Z-score under setting [3] came to 0.2796.
`CN1CCC(c2c[nH]c3ccc(O)cc23)CC1.O=C(O)/C=C\C(=O)O` [BRL 54443 maleate]: the “Raw Signal” value under setting [6] came out at 53701. Also, the Z-score under setting [7] is on record as -0.7419.
`CCN(CC)CC.Nc1ncnc2c1ncn2C1OC2COP(O)(=S)O[C@@H]2[C@@H]1O` (stereo partly drawn) [Rp-cAMPS triethylamine]: the “Raw Signal” value stood at 55695 and the Z-score is listed as -0.3907.
Take `O=C(O)C1=CC(=C(c2ccc(O)c(C(=O)O)c2)c2ccc(O)c(C(=O)O)c2)C=CC1=O` [Aurintricarboxylic acid]: the “Raw Signal” value under setting [6] is 8090. Moreover, under setting [7], the Z-score was -8.775.
On the same counts, the results for `CCCC(C(=O)OCCN(CC)CC)(c1ccccc1)c1ccccc1.Cl` [SKF-525A hydrochloride] are 51241 and -0.5297.
Consider `NCCCCNCCCN` [Spermidine trihydrochloride], for which the “Raw Signal” value under setting [4] is 60576. Under setting [5], the Z-score is listed as 0.8844.
Regarding `C/C=C1\C(=O)C[C@H]2[C@@H]3CCC4=CC(=O)CC[C@]4(C)[C@H]3CC[C@]12C` [(Z)-Gugglesterone], under setting [6], the “Raw Signal” value amounted to 49571. The Z-score under setting [7] is -1.1365.
On to `CC1=C(/C=C/C(C)=C/C=C/C(C)=C/C=C/C=C(C)/C=C/C=C(C)/C=C/C2=C(C)C(=O)[C@@H](O)CC2(C)C)C(C)(C)C[C@H](O)C1=O` [Astaxanthin], for which, under setting [1], the “Raw Signal” value is 57440. The same molecule showed a Z-score under setting [3] of -0.08333.
With `CN1CC[C@]2(CCN3CCc4c(oc5ccccc45)[C@@H]3C2)N(C)C1=O.Cl` [MK-912], the “Raw Signal” value under setting [6] was determined as 51307. Under setting [7], this molecule came in with a Z-score of -0.5186.
Consider `O=c1[nH]c2ccccc2c2ccccc12` [6(5H)-Phenanthridinone], for which, under setting [1], the “Raw Signal” value is on record as 55315. The Z-score under setting [2] is listed as -0.1377.
For the molecule `N[C@@H]1CON=C1O` [D-Cycloserine], the “Raw Signal” value under setting [1] worked out at 55913. Under setting [2], this molecule showed a Z-score of -0.3523.
For `CCCCNc1ccc(C(=O)OCCN(C)C)cc1` [Tetracaine hydrochloride], under setting [1], the “Raw Signal” value is 56522. For the same molecule, the Z-score under setting [3] stood at 0.09679.
With `CO[C@@]1(NC(=O)CSCC#N)C(=O)N2C(C(=O)O)=C(CSc3nnnn3C)CS[C@@H]21` [Cefmetazole sodium], the “Raw Signal” value under setting [6] worked out at 53279. This molecule yielded a Z-score under setting [7] of -0.8162.
Turning to `Br.CN1CCc2cc(O)cc3c2[C@H]1Cc1ccc(O)c(O)c1-3`, the “Raw Signal” value under setting [6] is 51557. The molecule also registered a Z-score under setting [7] of -0.7332.
For `CC(CCc1ccc(O)cc1)NCCc1ccc(O)c(O)c1` (stereo not drawn) [Dobutamine hydrochloride], in that order: 52494 and -0.5429.
`NC(=O)CN1CC(O)CC1=O` (stereo not drawn) [Oxiracetam]: the “Raw Signal” value under setting [1] is listed as 55053. In addition, under setting [3], the Z-score was found to be 0.1108.
Consider `Cl.O=C(O)C1=CCCN(CCON=C(c2ccccc2)c2ccccc2)C1` [NO-711 hydrochloride], for which, under setting [4], the “Raw Signal” value was found to be 58704. In addition, the Z-score under setting [5] came out at 0.7243.
Regarding `O=C(O)c1cc(O)cc(C(=O)O)n1` [Chelidamic acid], the “Raw Signal” value under setting [1] was 56074. For the same molecule, the Z-score under setting [2] is -0.3239.
As to `C=CCN1CC[C@]2(C)c3cc(O)ccc3C[C@H]1[C@H]2C.Cl` [(+)-N-Allylnormetazocine hydrochloride], the “Raw Signal” value under setting [6] is recorded as 54138. Also, the Z-score under setting [7] is given as -0.6649.
Take `O=S(=O)(c1cccc2c(Cl)cccc12)N1CCCNCC1` [ML-9]: the “Raw Signal” value under setting [1] is given as 57828. This molecule also displayed a Z-score under setting [3] of -0.01499.
Take `CC1=C(C(=O)O)N2C(=O)[C@@H](NC(=O)[C@H](N)c3ccccc3)[C@H]2SC1.O` [Cephalexin hydrate]: the “Raw Signal” value under setting [4] was 61524. The molecule further came in with a Z-score under setting [5] of 0.636.
For `Nc1ccc(CCN2CCN(c3cccc(C(F)(F)F)c3)CC2)cc1` [PAPP], the “Raw Signal” value under setting [1] came out at 56132. Under setting [3], the Z-score came to 0.02102.
As for `O=C1NC(=O)C(c2ccccc2)(c2ccccc2)N1` [5,5-Diphenylhydantoin], the “Raw Signal” value under setting [1] turned out to be 54091. This molecule also displayed a Z-score under setting [2] of -0.2185.
As to Ro 20-1724, under setting [6], the “Raw Signal” value was determined as 54602. The same molecule registered a Z-score under setting [7] of -0.5832.
In the case of `S=C=Nc1cccc(C2(N3CCCCC3)CCCCC2)c1` [Metaphit methanesulfonate], the “Raw Signal” value under setting [4] is 56894. Under setting [5], this molecule yielded a Z-score of 0.4201.
On to `Cc1ccc(O)c(N=Nc2ccccc2)n1` [SIB 1757], for which the “Raw Signal” value under setting [6] is recorded as 46352. Also, the Z-score under setting [7] is given as -1.879.
Regarding `CN1CC[C@@]23CCCC[C@@H]2[C@@H]1Cc1ccc(O)cc13.O=C(O)C(O)C(O)C(=O)O` [Dextrorphan D-tartrate], under setting [6], the “Raw Signal” value worked out at 63036. Moreover, the Z-score under setting [8] is recorded as 1.598.
Take `COc1cc2ncnc(Nc3cccc(Cl)c3)c2cc1OC` [Tyrphostin AG 1478]: the “Raw Signal” value under setting [4] is listed as 57891. Besides, under setting [5], the Z-score is listed as 0.3628.
Take `C[C@]12CCC(=O)C=C1CC[C@@H]1[C@@H]2CC[C@]2(C)C(=O)CC[C@@H]12` [4-Androstene-3,17-dione]: under setting [1], the “Raw Signal” value amounted to 58885. Besides, the Z-score under setting [3] came to 0.1712.
In the case of `COc1cc([C@@H]2c3cc4c(cc3[C@@H](O[C@@H]3O[C@@H]5CO[C@@H](C)O[C@H]5[C@H](O)[C@H]3O)[C@H]3COC(=O)[C@H]23)OCO4)cc(OC)c1O` [Etoposide], the “Raw Signal” value under setting [1] is listed as 53339. The Z-score under setting [2] was -0.3713.
On the same counts, the results for `CCCCCCCC/C=C\CCCCCCCC(=O)NCCO` [N-Oleoylethanolamine] are 53081 and -0.2205.
As for `O=c1n(CCCN2CCN(c3cccc(Cl)c3)CC2)nc2ccccn12` [Trazodone hydrochloride], under setting [4], the “Raw Signal” value is listed as 58114. Under setting [5], this molecule had a Z-score of 0.4061.
Turning to `CCCN1CCc2cccc3c2[C@H]1Cc1ccc(O)c(O)c1-3.Cl` [R(-)-Propylnorapomorphine hydrochloride], the “Raw Signal” value under setting [6] was 49804. This molecule registered a Z-score under setting [7] of -1.089.
Turning to `C[N+](C)(C)CCC(=O)c1cccc2ccccc12.[I-]`, the “Raw Signal” value under setting [1] is on record as 55064. Under setting [3], this molecule yielded a Z-score of 0.1127.
For the molecule `O=c1[nH]c2cc(C(F)(F)F)ccc2n1-c1cc(C(F)(F)F)ccc1O` [NS-1619], the “Raw Signal” value under setting [6] is 51434. Under setting [7], this molecule registered a Z-score of -0.4973.
In the case of `CC[C@H](C)[C@H]1O[C@]2(CC[C@@H]1C)C[C@@H]1C[C@@H](C/C=C(\C)[C@@H](O[C@H]3C[C@H](OC)[C@@H](O[C@H]4C[C@H](OC)[C@@H](O)[C@H](C)O4)[C@H](C)O3)[C@@H](C)/C=C/C=C3\CO[C@@H]4[C@H](O)C(C)=C[C@@H](C(=O)O1)[C@]34O)O2` [Ivermectin], the “Raw Signal” value under setting [1] is recorded as 51728. Under setting [2], this molecule yielded a Z-score of -0.4479.
